Test results from patent US7879996B2, “Water soluble compounds” (priority 2007, dated 2011).

Experiment: cationite (cation-exchanging) capacity
Format: physicochemical

cationite capacities: 320-370 meqv/mmol
Substance: 2-([60] fullerene [1′,9′:3,4] cyclohexen-1-y1)-5,10,15,20-(tetra magnesium [(4-(N-(4-carboxy butyl) amino) phenyl 2,3-dicarboxylatel]) porphyrin iron (II) [PMC16]
